Several values for one entry are separate records, joined by “and”; a condition that tells them apart may be missing. Equal entries are not always repeated.
Key:
[1] = system: Apoprotein E deficient mice; experiment: Thoracic aorta lipids (Bligh-Dyer extraction, WAKO kits; TC, FC, CE per mg protein); assay type: in vivo; conditions: 12 weeks
Source text: (§1) Apoprotein E deficient mice (Jackson Laboratories, 600 Main Street, Bar Harbor, Me.) were used in this study. The mice were male, 7-8 weeks of age, and between 18-20 g in weight. An initial total cholesterol measurement was made on 30 mice, and the mice were grouped into two groups of 15 to match the total cholesterol measurements. Both groups were fed a “western diet” (40 kcal % butterfat, 0.15% [wt/wt] cholesterol, Harlan Teklad diet TD-88137). Starting at t=0, the control group of 15 mice received vehicle only (phosphate buffered saline at pH 7.4), while the test group of 15 mice received aromatic-cationic peptide reconstituted in phosphate buffered saline. Body weights of the mice were recorded weekly, and mortality checks were performed daily.
(§2) The aromatic-cationic peptide D-Arg-2′6′-Dmt-Lys-Phe-NH2 (sterile lyophilized powder, reconstituted in phosphate buffered saline) was tested. For the 12-week study, test mice received a single, daily dose of the peptide, subcutaneously at 1 mg/kg. Control mice received a single daily dose of vehicle.
Histopathology/Histomorphometery: Following the 12 week treatment, mice were euthanized within 48 hours after the last dose by CO2 asphyxiation and the vascular tree was perfused with 5 mL of phosphate buffered saline (pH 7.4). The aorta and aortic sinus were removed for examination. Thoracic aorta were isolated, trimmed of fat, and fixed in formalin for 48-72 hours before analysis. For en face analysis, aortas were laid out and pinned on black matrix for photography, and stained with Sudan IV. Vessels were imaged for surface involvement using a Nikon computerized image analysis system and the percent of the aortic surface area covered by lipid was calculated. Two determinations were done for each image (Quan 1 and Quan 2), and the average was computed. The data were then computed by group and statistically analyzed. Following staining and morphometric analysis, total lipids were extracted from the aortas using the Bligh-Dyer method. WAKO Diagnostics kits (WAKO Diagnostics, Inc., 1600 Bellwood Road Richmond, Va. 23237-1326) were then used to evaluate total cholesterol, free cholesterol, and cholesterol ester. Cholesterol leves were quantitate nad expressed relative to protein levels. Values are expressed as μg lipid per mg protein (see e.g., FIG. 1).

[2] = system: Apoprotein E deficient mice; experiment: Plasma lipid analysis using an autoanalyzer (TC, Trigs, PL, FC, CE by calculation); assay type: in vivo; set-up: TC, plasma / FC, plasma / CE, plasma / Trigs, plasma / PL, plasma / TC / FC / CE / Trigs / PL: unit not given here; conditions: for CE: plasma cholesterol ester; for FC: plasma free cholesterol; for PL: plasma phospholipid
Source text: as §1, §2
Experimental Protocol/Data Collection. Blood was collected every four weeks (orbital plexis) under isoflurane anesthesia (3%) and blood lipids were determined. Plasma lipid analysis was conducted for both groups at t=0, 4, […], 8, and 12 weeks. Plasma lipid analysis using an autoanalyzer included total cholesterol (TC), triglycerides (Trigs), phospholipids (PL), free cholesterol (FC), and cholesterol ester (CE, by calculation). Gel electrophoresis was used to measure levels of high-density lipoprotein cholesterol (HDL-C), low-density lipoprotein cholesterol (LDL-C), and very low-density lipoprotein cholesterol (VLDL-C).

[3] = group average, 1 mg/kg subcutaneously daily
[4] = individual mouse, 1 mg/kg subcutaneously daily, μg lipid per mg protein, listed as Peptide, 1 mg/kg
[5] = treated versus vehicle, listed as aromatic-cationic peptide
[6] = Week 0 (t=0, start of dosing), individual mouse of test group
[7] = Week 0, group average of test group
[8] = at 4, 8 and 12 week time points, versus vehicle
[9] = week 4, individual test mouse (sample #16-30), listed as aromatic-cationic peptide
[10] = week 8, individual test mouse (sample #16-30), listed as aromatic-cationic peptide
[11] = week 12, AVE of 15 test animals
[12] = week 12, individual test mouse (sample #16-30), listed as aromatic-cationic peptide

Substance: D-Arg-2′6′-Dmt-Lys-Phe-NH2
- CE (cholesterol ester), thoracic aorta, AVE [1, 3]: 14.6 µg/mg
- FC (free cholesterol), thoracic aorta, AVE [1, 3]: 5.7 µg/mg
- TC (total cholesterol), thoracic aorta, AVE [1, 3]: 20.4 µg/mg
- CE (cholesterol ester), thoracic aorta [1, 4]: 13.8 μg/mg and 2.7 μg/mg and 30.3 μg/mg and 14.7 μg/mg and 30.7 μg/mg and 14.1 μg/mg and 4.6 μg/mg (2×) and 5.6 μg/mg (2×) and 28.5 μg/mg and 21.3 μg/mg and 18.6 μg/mg and 11.4 μg/mg and 13.0 μg/mg
- FC (free cholesterol), thoracic aorta [1, 4]: 7.6 μg/mg (2×) and 4.0 μg/mg and 5.1 μg/mg and 3.0 μg/mg (2×) and 8.1 μg/mg and 2.7 μg/mg and 3.5 μg/mg and 14.6 μg/mg and 6.6 μg/mg and 3.8 μg/mg and 3.6 μg/mg and 3.3 μg/mg and 9.5 μg/mg
- TC (total cholesterol), thoracic aorta [1, 4]: 21.4 µg/mg and 6.7 µg/mg and 35.4 µg/mg and 17.7 µg/mg and 38.8 µg/mg and 16.8 µg/mg and 8.1 µg/mg and 20.1 µg/mg and 35.1 µg/mg and 9.4 µg/mg and 24.9 µg/mg and 21.7 µg/mg and 7.9 µg/mg and 19.0 µg/mg and 22.5 µg/mg
- cholesterol esters in the thoracic aorta, in words [1, 5]: lower
- free cholesterol in the thoracic aorta, in words [1, 5]: lower
- total cholesterol in the thoracic aorta, in words [1, 5]: lower
- FC, plasma [2, 6]: 119 and 121 and 134 (2×) and 110 and 116 and 131 and 129 and 184 and 113 and 139 and 170 and 151 and 159 and 220
- PL, plasma [2, 6]: 267 (3×) and 308 and 255 and 306 and 298 and 369 and 238 and 320 and 313 and 332 and 343 and 338 and 413
- TC, plasma [2, 6]: 302 (2×) and 318 and 376 and 323 and 335 and 369 and 550 and 309 and 409 and 431 and 552 and 457 and 490 and 808
- Trigs, plasma [2, 6]: 75 and 88 (3×) and 117 and 96 and 71 and 138 and 167 and 136 and 151 and 191 and 188 and 154 and 353
- CE, plasma ([2]; Week 0 (t=0, start of dosing), individual mouse of test group, by calculation): 183 and 197 and 242 and 192 and 207 and 204 and 240 and 366 and 196 and 270 and 297 and 382 and 306 and 331 and 588
- FC, plasma, AVE [2, 7]: 142
- PL, plasma, AVE [2, 7]: 309
- TC, plasma, AVE [2, 7]: 422
- Trigs, plasma, AVE [2, 7]: 140
- CE, plasma, AVE ([2]; Week 0, group average of test group, by calculation): 280
- plasma cholesterol ester, in words [2, 8]: reduces
- plasma free cholesterol, in words [2, 8]: reduces
- plasma phospholipid levels, in words [2, 8]: reduces
- plasma total cholesterol, in words [2, 8]: reduces
- plasma triglycerides, in words [2, 8]: reduces
- CE ([2]; week 4, AVE of 15 test animals): 610
- CE [2, 9]: 491 and 580 and 622 and 731 and 626 and 417 and 574 and 660 and 515 and 536 and 630 and 761 and 581 and 732 and 701
- CE ([2]; week 8, AVE of 15 test animals): 932
- CE [2, 10]: 940 and 710 and 1119 and 865 and 1153 and 653 and 714 and 1085 and 715 and 670 and 1073 and 1048 and 839 and 1130 and 1267
- CE [2, 11]: 681
- CE [2, 12]: 607 and 335 and 597 and 640 and 1002 and 477 and 445 and 476 and 675 and 687 and 960 and 869 and 339 and 904 and 1201
- FC ([2]; week 4, AVE of 15 test animals): 387
- FC [2, 9]: 308 and 344 and 354 (2×) and 408 and 412 and 256 and 366 and 386 and 320 and 286 and 396 and 462 and 516 and 636
- FC ([2]; week 8, AVE of 15 test animals): 350
- FC [2, 10]: 322 and 294 (2×) and 386 and 318 and 392 and 290 and 388 and 308 (2×) and 286 and 362 and 366 and 404 and 530
- FC [2, 11]: 322
- FC [2, 12]: 291 and 205 and 287 and 296 and 418 and 242 and 229 and 269 and 315 and 312 and 419 and 386 and 219 and 413 and 535
- PL ([2]; week 4, AVE of 15 test animals): 514
- PL [2, 9]: 422 and 482 and 452 and 560 and 526 and 320 and 506 and 556 and 446 and 416 and 516 and 580 and 510 and 666 and 750
- PL ([2]; week 8, AVE of 15 test animals): 493
- PL [2, 10]: 416 and 456 and 474 and 448 and 516 (2×) and 424 and 480 and 488 and 436 and 440 and 556 and 470 and 540 and 728
- PL [2, 11]: 434
- PL [2, 12]: 366 and 318 and 320 and 432 and 491 and 321 and 363 and 394 and 374 and 423 and 536 and 521 and 340 and 575 and 741

Reference: US10188693B2, “Methods for treatment of atherosclerosis” (Stealth BioTherapeutics Corp, priority 2012, dated 2019)
